Assays:
[1] = system: J774; experiment: Selectivity ratio of IC50 for COX1 in arachidonic acid-stimulated mouse J774 cells to IC50 for COX2 in LPS-stimulated mouse J774 cells; type: cell-based
[2] = target: T1, Prostaglandin G/H synthase 2 (Mus musculus, UniProt Q05769)
T1 sequence (Q05769 whole entry): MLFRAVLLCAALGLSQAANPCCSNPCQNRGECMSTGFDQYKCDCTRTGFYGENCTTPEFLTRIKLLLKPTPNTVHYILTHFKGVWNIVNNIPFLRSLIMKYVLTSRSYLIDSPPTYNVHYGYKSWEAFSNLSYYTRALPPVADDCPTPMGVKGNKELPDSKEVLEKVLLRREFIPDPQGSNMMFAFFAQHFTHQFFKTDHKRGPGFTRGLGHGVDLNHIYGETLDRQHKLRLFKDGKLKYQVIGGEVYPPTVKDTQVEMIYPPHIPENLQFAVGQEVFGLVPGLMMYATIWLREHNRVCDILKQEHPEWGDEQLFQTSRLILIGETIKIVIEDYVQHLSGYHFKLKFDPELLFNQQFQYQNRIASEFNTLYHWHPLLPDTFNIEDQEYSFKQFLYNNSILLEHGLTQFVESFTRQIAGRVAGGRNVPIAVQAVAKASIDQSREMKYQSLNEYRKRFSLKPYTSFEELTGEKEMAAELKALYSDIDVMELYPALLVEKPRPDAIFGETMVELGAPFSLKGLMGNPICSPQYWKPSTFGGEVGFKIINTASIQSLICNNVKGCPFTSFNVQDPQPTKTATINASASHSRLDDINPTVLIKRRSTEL
Description: Inhibition of COX2 in LPS-stimulated mouse J774 cells assessed as inhibition of PGE2 production after 15 mins by radioimmunoassay

[3] = target: T2, Prostaglandin G/H synthase 1 (Mus musculus, UniProt P22437); experiment: Inhibition of COX1 in arachidonic acid-stimulated mouse J774 cells assessed as inhibition of PGE2 production after 15 mins by radioimmunoassay; type: cell-based
T2 sequence (P22437 whole entry): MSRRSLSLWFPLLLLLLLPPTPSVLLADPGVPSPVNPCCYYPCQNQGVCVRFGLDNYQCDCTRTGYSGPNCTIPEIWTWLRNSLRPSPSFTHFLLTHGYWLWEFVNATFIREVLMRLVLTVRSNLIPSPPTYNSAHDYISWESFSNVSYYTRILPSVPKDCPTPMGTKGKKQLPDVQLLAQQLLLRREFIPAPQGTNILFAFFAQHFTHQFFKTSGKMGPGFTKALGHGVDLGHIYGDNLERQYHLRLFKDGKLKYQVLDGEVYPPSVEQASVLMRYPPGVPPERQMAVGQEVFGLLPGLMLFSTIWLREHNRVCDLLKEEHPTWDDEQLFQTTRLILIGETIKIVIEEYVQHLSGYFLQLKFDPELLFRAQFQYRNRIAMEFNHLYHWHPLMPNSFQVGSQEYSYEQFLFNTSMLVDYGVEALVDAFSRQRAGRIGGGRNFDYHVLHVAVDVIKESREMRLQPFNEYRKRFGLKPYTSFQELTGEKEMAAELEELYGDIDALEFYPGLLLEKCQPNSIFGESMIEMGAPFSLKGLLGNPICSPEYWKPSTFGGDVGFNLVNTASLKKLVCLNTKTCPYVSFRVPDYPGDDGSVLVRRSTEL

[4] = target: T3, Prostaglandin G/H synthase 2 (Homo sapiens, UniProt P35354); experiment: Inhibition of COX2 in human whole blood assessed as inhibition of TXB2 production by radioimmunoassay; type: tissue-based
T3 sequence (P35354 whole entry): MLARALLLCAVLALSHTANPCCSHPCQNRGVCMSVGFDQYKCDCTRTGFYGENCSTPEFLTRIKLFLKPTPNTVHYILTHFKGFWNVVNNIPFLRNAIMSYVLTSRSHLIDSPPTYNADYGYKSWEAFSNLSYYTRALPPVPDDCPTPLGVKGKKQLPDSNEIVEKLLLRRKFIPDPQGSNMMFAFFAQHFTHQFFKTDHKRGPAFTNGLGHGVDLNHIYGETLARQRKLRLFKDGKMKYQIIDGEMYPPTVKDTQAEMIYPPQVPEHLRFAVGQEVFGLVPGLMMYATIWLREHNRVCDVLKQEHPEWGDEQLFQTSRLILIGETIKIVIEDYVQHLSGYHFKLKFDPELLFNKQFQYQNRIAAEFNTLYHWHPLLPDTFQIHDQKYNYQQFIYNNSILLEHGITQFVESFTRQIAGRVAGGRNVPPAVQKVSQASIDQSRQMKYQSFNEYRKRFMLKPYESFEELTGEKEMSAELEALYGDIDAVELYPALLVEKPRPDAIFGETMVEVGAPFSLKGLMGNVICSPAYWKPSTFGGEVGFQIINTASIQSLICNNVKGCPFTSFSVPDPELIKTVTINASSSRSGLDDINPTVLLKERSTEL

[5] = system: Rattus norvegicus; experiment: Analgesic activity against carrageenan-induced hyperalgesia in rat assessed as paw pressure at 20 mg/kg, po after 30 mins; type: functional
[6] = system: Rattus norvegicus; experiment: Analgesic activity against carrageenan-induced hyperalgesia in rat assessed as paw pressure at 20 mg/kg, po after 60 mins; type: functional
[7] = target: Prostaglandin G/H synthase 1 (Homo sapiens, UniProt P23219); experiment: Inhibition of COX1 in human whole blood assessed as inhibition of LPS-stimulated PGE2 production by radioimmunoassay; type: tissue-based
Prostaglandin G/H synthase 1 (Homo sapiens, UniProt P23219), sequence (P23219 whole entry): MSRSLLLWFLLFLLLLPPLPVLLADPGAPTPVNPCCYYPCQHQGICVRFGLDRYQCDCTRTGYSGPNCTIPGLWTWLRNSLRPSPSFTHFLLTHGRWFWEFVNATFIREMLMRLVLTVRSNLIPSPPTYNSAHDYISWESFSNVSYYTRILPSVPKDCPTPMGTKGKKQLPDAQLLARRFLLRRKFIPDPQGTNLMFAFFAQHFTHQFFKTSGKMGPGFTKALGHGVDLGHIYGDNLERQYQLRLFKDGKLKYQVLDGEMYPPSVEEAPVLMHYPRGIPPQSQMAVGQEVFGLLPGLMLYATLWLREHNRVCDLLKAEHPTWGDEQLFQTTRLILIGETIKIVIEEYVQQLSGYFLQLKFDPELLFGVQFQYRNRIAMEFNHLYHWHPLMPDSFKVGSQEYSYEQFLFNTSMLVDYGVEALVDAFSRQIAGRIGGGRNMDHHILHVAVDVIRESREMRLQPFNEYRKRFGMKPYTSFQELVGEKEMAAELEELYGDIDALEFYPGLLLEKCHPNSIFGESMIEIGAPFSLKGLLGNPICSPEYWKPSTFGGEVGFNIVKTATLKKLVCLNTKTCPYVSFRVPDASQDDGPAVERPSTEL

[8] = system: Rattus norvegicus; experiment: Antiinflammatory activity against carrageenan-induced paw edema in rat assessed as paw volume at 20 mg/kg, po administered 4 hrs post carrageenan challenge measured after 60 mins; type: functional
[9] = system: Mus musculus; experiment: Analgesic activity against acetic acid-induced writhing in Swiss albino mouse assessed as number of writhes at 20 mg/kg, po administered 30 mins before test; type: functional
[10] = system: Rattus norvegicus; experiment: Analgesic activity against carrageenan-induced hyperalgesia in rat assessed as paw pressure at 20 mg/kg, po after 120 mins; type: functional
[11] = system: Mus musculus; experiment: Analgesic activity against acetic acid-induced writhing in po dosed Swiss albino mouse assessed as number of writhes administered 30 mins before test; type: functional, organism-based
[12] = system: Mus musculus; experiment: Analgesic activity against acetic acid-induced writhing in Swiss albino mouse assessed as number of writhes at 10 mg/kg, po administered 30 mins before test; type: functional

Q: Which Ratio IC50 [1] does the source give for `CCOC(=O)[C@@H](O)c1cc(-c2ccc(S(C)(=O)=O)cc2)n(-c2cccc(F)c2)c1C` here?
A: > 90

Q: What about the IC50 [2] of the same compound?
A: 1100 nM

Q: What about the IC50 [3] of the same compound?
A: > 100000 nM

Q: With `CCOC(=O)[C@@H](O)c1cc(-c2ccc(S(C)(=O)=O)cc2)n(-c2ccc(OC)cc2)c1C` as the compound, how does the IC50 [3] read?
A: > 100000 nM

Q: What does the source list for `CCOC(=O)[C@H](OCC)c1cc(-c2ccc(S(C)(=O)=O)cc2)n(-c2cccc(F)c2)c1C`?
A: Ratio IC50 [1]: > 100; IC50 [2]: 810 nM; IC50 [3]: > 100000 nM

Q: Which results are given for `CCOC(=O)[C@@H](OCC)c1cc(-c2ccc(S(C)(=O)=O)cc2)n(-c2ccc(OC)cc2)c1C`?
A: Ratio IC50 [1]: > 700; IC50 [2]: 140 nM; IC50 [3]: > 100000 nM

Q: How did the IC50 [4] turn out when `CCc1cccc2c3c([nH]c12)C(CC)(CC(=O)O)OCC3` (configuration not stated) [ETODOLAC] was run?
A: 2000 nM

Q: Which results are given for `CCOC(=O)C(OCC)c1cc(-c2ccc(S(C)(=O)=O)cc2)n(-c2ccccc2)c1C` (racemic)?
A: Ratio IC50 [1]: > 800; IC50 [2]: 180 nM; IC50 [3]: > 100000 nM

Q: How did the IC50 [3] turn out when `CCOC(=O)C(O)c1cc(-c2ccc(S(C)(=O)=O)cc2)n(-c2ccc(OC)cc2)c1C` (racemic) was run?
A: > 100000 nM

Q: Which results are given for `CCOC(=O)[C@@H](OCC)c1cc(-c2ccc(S(C)(=O)=O)cc2)n(-c2ccccc2)c1C`?
A: Ratio IC50 [1]: > 1000; IC50 [2]: 100 nM; IC50 [3]: > 100000 nM

Q: With `CCOC(=O)C(O)c1cc(-c2ccc(S(C)(=O)=O)cc2)n(-c2cccc(F)c2)c1C` (racemic) as the compound, how does the Ratio IC50 [1] read?
A: > 800

Q: What about the IC50 [4] of the same compound?
A: 3800 nM

Q: And the IC50 [2]?
A: 120 nM

Q: And the Activity [5]?
A: 54.8 g

Q: What about the Activity [6] of the same compound?
A: 45.2 g

Q: And the IC50 [7]?
A: 21300 nM

Q: What about the Activity [8] of the same compound?
A: 1.4 mL

Q: And the Activity [9]?
A: 16.1

Q: What about the IC50 [3] of the same compound?
A: > 100000 nM

Q: What about the Activity [10] of the same compound?
A: 47.5 g

Q: And the Activity [11]?
A: Dose-dependent effect

Q: What about the Activity [12] of the same compound?
A: 26.3

Q: Which Ratio IC50 [1] does the source give for `CCOC(=O)[C@H](OCC)c1cc(-c2ccc(S(C)(=O)=O)cc2)n(-c2ccccc2)c1C` here?
A: > 700

Q: And the IC50 [2]?
A: 140 nM

Q: What about the IC50 [3] of the same compound?
A: > 100000 nM

Q: For `CCOC(=O)C(OCC)c1cc(-c2ccc(S(C)(=O)=O)cc2)n(-c2ccc(OC)cc2)c1C` (racemic), which Ratio IC50 [1] is on record?
A: > 800

Q: And the IC50 [2]?
A: 130 nM

Q: And the IC50 [3]?
A: > 100000 nM

Q: With `CCOC(=O)[C@@H](OCC)c1cc(-c2ccc(S(C)(=O)=O)cc2)n(-c2cccc(F)c2)c1C` as the compound, how does the Ratio IC50 [1] read?
A: > 400

Q: What about the IC50 [2] of the same compound?
A: 250 nM

Q: What about the IC50 [3] of the same compound?
A: > 100000 nM

Q: How did the Ratio IC50 [1] turn out when `CCOC(=O)[C@H](O)c1cc(-c2ccc(S(C)(=O)=O)cc2)n(-c2cccc(F)c2)c1C` was run?
A: > 1300

Q: What about the IC50 [2] of the same compound?
A: 75 nM

Q: And the IC50 [3]?
A: > 100000 nM

Q: How did the IC50 [3] turn out when `CCOC(=O)[C@H](O)c1cc(-c2ccc(S(C)(=O)=O)cc2)n(-c2ccccc2)c1C` was run?
A: > 100000 nM

Q: `CCOC(=O)[C@H](O)c1cc(-c2ccc(S(C)(=O)=O)cc2)n(-c2ccc(OC)cc2)c1C` was tested. Which IC50 [3] did it give?
A: > 100000 nM

Q: What does the source list for `CCOC(=O)[C@H](OCC)c1cc(-c2ccc(S(C)(=O)=O)cc2)n(-c2ccc(OC)cc2)c1C`?
A: Ratio IC50 [1]: > 1100; IC50 [2]: 90 nM; IC50 [3]: > 100000 nM

Q: `CCOC(=O)C(O)c1cc(-c2ccc(S(C)(=O)=O)cc2)n(-c2ccccc2)c1C` (racemic) was tested. Which IC50 [3] did it give?
A: > 100000 nM

Q: For `CCOC(=O)[C@@H](O)c1cc(-c2ccc(S(C)(=O)=O)cc2)n(-c2ccccc2)c1C`, which IC50 [3] is on record?
A: > 100000 nM

Q: With `CCOC(=O)C(OCC)c1cc(-c2ccc(S(C)(=O)=O)cc2)n(-c2cccc(F)c2)c1C` (racemic) as the compound, how does the Ratio IC50 [1] read?
A: > 1000

Q: What about the IC50 [2] of the same compound?
A: 100 nM

Q: And the IC50 [3]?
A: > 100000 nM

— ChEMBL document CHEMBL1140067, “Synthesis, in vitro, and in vivo biological evaluation and molecular docking simulations of chiral alcohol and ether derivatives of the 1,5-diarylpyrrole scaffold as novel anti-inflammatory and analgesic agents” (Bioorg Med Chem, 2008)
